Here are results for 76 compounds from patent US20250090540A1, “PI3K-ALPHA INHIBITORS AND METHODS OF USE THEREOF” (Relay Therapeutics, Inc., priority 2021, published 2025).

Each structure is given as a SMILES string.

In the first test the target is H1047R PIK3CA enzyme (Homo sapiens, UniProt P42336, H1047R). The test is described as follows: ADP-Glo Biochemical PIK3CA Kinase Assay.
Chain of H1047R PIK3CA enzyme (P42336 whole entry H1047R): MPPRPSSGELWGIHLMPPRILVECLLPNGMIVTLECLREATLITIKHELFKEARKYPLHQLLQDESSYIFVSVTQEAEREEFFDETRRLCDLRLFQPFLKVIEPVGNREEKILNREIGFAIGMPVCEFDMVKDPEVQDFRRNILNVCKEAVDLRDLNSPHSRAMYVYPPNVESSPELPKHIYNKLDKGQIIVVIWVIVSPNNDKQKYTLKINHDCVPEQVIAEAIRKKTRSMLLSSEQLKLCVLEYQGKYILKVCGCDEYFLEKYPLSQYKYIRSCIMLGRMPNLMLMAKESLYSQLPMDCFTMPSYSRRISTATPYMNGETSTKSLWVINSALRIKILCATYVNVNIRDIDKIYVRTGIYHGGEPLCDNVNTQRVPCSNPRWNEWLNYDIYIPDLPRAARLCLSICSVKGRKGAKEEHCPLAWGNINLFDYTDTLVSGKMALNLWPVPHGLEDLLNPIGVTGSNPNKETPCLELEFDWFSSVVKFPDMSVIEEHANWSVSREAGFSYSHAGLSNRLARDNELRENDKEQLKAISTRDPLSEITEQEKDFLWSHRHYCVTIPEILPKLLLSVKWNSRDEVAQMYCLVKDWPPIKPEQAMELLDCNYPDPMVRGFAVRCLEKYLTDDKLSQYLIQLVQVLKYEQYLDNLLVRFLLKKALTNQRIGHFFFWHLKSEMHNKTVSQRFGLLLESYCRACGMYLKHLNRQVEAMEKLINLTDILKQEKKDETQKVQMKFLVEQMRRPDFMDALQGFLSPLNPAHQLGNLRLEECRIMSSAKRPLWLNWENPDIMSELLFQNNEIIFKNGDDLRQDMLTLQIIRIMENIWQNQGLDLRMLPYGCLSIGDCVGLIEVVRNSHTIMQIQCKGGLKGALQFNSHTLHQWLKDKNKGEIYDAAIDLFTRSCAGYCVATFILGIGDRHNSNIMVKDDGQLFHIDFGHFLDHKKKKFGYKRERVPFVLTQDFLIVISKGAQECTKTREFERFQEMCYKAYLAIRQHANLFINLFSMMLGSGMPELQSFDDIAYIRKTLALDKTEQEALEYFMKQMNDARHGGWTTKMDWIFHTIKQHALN
Chain of H1047R PIK3CA enzyme (P27986 whole entry partner): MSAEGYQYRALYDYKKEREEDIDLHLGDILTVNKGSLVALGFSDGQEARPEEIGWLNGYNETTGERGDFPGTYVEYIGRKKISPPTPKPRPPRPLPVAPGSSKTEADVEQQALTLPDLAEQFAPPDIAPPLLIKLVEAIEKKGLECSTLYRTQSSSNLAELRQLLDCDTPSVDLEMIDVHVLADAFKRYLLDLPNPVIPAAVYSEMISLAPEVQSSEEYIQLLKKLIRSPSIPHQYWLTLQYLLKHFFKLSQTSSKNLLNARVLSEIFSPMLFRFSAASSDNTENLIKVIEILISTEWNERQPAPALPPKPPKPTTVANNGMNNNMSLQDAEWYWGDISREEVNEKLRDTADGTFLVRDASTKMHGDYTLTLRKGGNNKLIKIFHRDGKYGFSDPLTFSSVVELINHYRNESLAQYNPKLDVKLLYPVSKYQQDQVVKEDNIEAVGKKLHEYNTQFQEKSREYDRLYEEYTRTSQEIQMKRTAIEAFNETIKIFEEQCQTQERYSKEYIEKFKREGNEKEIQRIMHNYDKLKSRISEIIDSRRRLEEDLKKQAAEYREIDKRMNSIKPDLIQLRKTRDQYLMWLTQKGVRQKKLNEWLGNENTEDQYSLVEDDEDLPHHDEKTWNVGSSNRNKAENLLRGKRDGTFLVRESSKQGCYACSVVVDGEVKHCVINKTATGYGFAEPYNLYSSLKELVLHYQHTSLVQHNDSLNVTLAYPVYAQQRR
Conditions: not given
(In ADP-Glo the light output rises with the ADP produced.)
Usually IC50 stands for the concentration that gives 50% inhibition. A higher IC50 goes with weaker potency in that assay. Compound `CNC(=O)c1cnc(Nc2ccccc2C)c(NC(=O)Cc2ccc(OCc3ccccc3)c(OCc3ccccc3)c2)c1` [I-14] showed an IC50 of 10 to 100 µM.

In turn, `CNC(=O)c1cnc(Nc2ccccc2C)c(NC(=O)[C@@H](OC)c2ccccc2)c1` [I-169] yielded an IC50 of 10 to 100 µM.

Compound `Cc1ccccc1N[C@H]1CCN(C(=O)OC(C)(C)C)C[C@H]1C(=O)Nc1cc(F)cc(C(F)(F)F)c1` (racemic) [I-68] had an IC50 of 10 to 100 µM.

`CNC(=O)c1cnc(Nc2ccccc2C)c(NC(=O)Cc2cc(F)cc(F)c2)c1` [I-161] returned an IC50 of 10 to 100 µM.

For the compound `CCC(C(=O)Nc1cc(C(=O)NC)cnc1Nc1ccccc1C)c1ccccc1` (stereo not shown) [I-162], the IC50 lay in the range of 10 to 100 µM.

The compound `O=C(Nc1cc(-c2ccc3ncnn3c2)cnc1Nc1cc(CO)ccc1Cl)c1cc(F)cc(C(F)(F)F)c1` [I-811] displayed an IC50 of 10 to 100 µM.

With `CNC(=O)c1cnc(Nc2cc(F)ccc2Cl)c(NC(=O)NC23C[C@H]4C[C@@H](C2)C[C@@H](C3)C4)c1` [I-799], the IC50 is 10 to 100 µM.

Regarding `CNC(=O)c1cnc(Nc2ccccc2C)c(NC(=O)c2coc3ccccc23)c1` [I-44], the IC50 lay within 1 to 10 µM.

In the case of `CNC(=O)N1CC[C@H](Nc2ccccc2C)[C@H](C(=O)Nc2cc(F)cc(C(F)(F)F)c2)C1` (racemic) [I-203], the IC50 was 10 to 100 µM.

`CNC(=O)c1cnc(Nc2ccccc2C)c(NC(=O)c2csc3cc(OC)ccc23)c1` [I-355] gave an IC50 of 10 to 100 µM.

In the case of `CNC(=O)c1cnc(Nc2ccccc2C)c(NC(=O)C2(c3ccc(C)cc3)CC2)c1` [I-160], the IC50 is 10 to 100 µM.

Take `CNC(=O)c1cnc(Nc2ccccc2)c(NC(=O)c2cc(F)cc(C(F)(F)F)c2)c1` [I-33]: the IC50 lay in the range of 10 to 100 µM.

On to `CNC(=O)c1cnc(Nc2ccc(C)nc2)c(NC(=O)c2cc(F)cc(C(F)(F)F)c2)c1` [I-201], for which the IC50 fell in the range of 10 to 100 µM.

Compound `Cc1ccccc1Nc1ncc(-c2cnn(C)c2)cc1NC(=O)c1cccc2cnccc12` [I-119] showed an IC50 of 10 to 100 µM.

Regarding `CNc1ncc(Br)cc1NC(=O)c1cc(F)cc(C(F)(F)F)c1` [I-58], the IC50 fell in the range of 10 to 100 µM.

As to `Cc1ccccc1Nc1ncc(-c2cnn(C)c2)cc1NC(=O)c1cc(F)cc(F)c1` [I-101], the IC50 was 1 to 10 µM.

`Cc1ccccc1Nc1ncc(NCC#N)cc1NC(=O)c1cc(F)cc(C(F)(F)F)c1` [I-155] came in with an IC50 of 0.5 to 1 µM.

`Cc1ccccc1Nc1ncc(-c2cnn(C)c2)cc1NC(=O)c1ccc(S(N)(=O)=O)cc1` [I-129] gave an IC50 of 10 to 100 µM.

`Cc1ccccc1N[C@H]1CCN(C(=O)C2(O)CC2)C[C@H]1C(=O)Nc1cc(F)cc(C(F)(F)F)c1` (racemic) [I-227] displayed an IC50 of 10 to 100 µM.

`CNC(=O)c1cnc(N2CCNCc3ccccc32)c(NC(=O)c2cc(F)cc(C(F)(F)F)c2)c1` [I-281] gave an IC50 of 10 to 100 µM.

In turn, `CNC(=O)c1cnc(Nc2ccccc2C)c(NC(=O)c2cc(C(F)(F)F)cc(C(F)(F)F)c2)c1` [I-177] registered an IC50 of 10 to 100 µM.

The compound `Cc1cnc(Nc2ccccc2C)c(NC(=O)c2cc(F)cc(C(F)(F)F)c2)c1` [I-19] displayed an IC50 of 10 to 100 µM.

Turning to `CNC(=O)c1cnc(Nc2ccccc2C)c(NC(=O)c2csc3ncccc23)c1` [I-283], the IC50 was 10 to 100 µM.

The compound `Cc1ccc(NC(=O)c2cc(F)cc(C(F)(F)F)c2)c(Nc2ccccc2C)n1` [I-59] displayed an IC50 of 1 to 10 µM.

The compound `CNC(=O)c1cnc(Nc2ccccc2C)c(NC(=O)c2cccnc2C(F)(F)F)c1` [I-371] returned an IC50 of 10 to 100 µM.

In turn, `CNC(=O)c1cnc(N2c3ccccc3CCC2C)c(NC(=O)c2csc3ccccc23)c1` (stereo not shown) [I-218] had a 50% inhibitory concentration (IC50) of 10 to 100 µM.

`CNC(=O)c1cnc(Nc2ccccc2C)c(NC(=O)c2cc(F)cc(OC(F)F)c2)c1` [I-364] had a half-maximal inhibitory concentration (IC50) of 1 to 10 µM.

Take `CNC(=O)c1cnc(Nc2ccccc2C)c(NC(=O)c2cccc3cnccc23)c1` [I-237]: the IC50 was in the range of 10 to 100 µM.

Regarding `Cc1ccccc1Nc1cc(=O)n(CC(=O)NCC2CC(F)(F)C2)cc1NC(=O)c1csc2ccccc12` [I-363], the IC50 was in the range of 1 to 10 µM.

With `CNC(=O)c1cnc(Nc2ccccc2C)c(NC(=O)c2nn(C)c3ccccc23)c1` [I-158], the IC50 is 10 to 100 µM.

Compound `COCCNc1ncccc1NC(=O)c1csc2ccccc12` [I-134] had an IC50 of 10 to 100 µM.

Compound `CNC(=O)c1cnc(Nc2ccccc2C)c(NC(=O)c2nccnc2C(F)(F)F)c1` [I-372] registered an IC50 of 10 to 100 µM.

Turning to `CNC(=O)N1CC[C@@H](Nc2ccccc2C)[C@H](C(=O)Nc2cc(F)cc(C(F)(F)F)c2)C1` (racemic) [I-229], the IC50 was in the range of 10 to 100 µM.

In the case of `CNC(=O)c1cnc(Nc2ccccc2C)c(NC(=O)c2cc3c(F)cc(F)cc3[nH]2)c1` [I-5], the IC50 is 10 to 100 µM.

In turn, `CNC(=O)c1cnc(Nc2ccccc2C)c(NC(=O)CC2OCCc3ccccc32)c1` (stereo not shown) [I-387] registered an IC50 of 10 to 100 µM.

Regarding `CNC(=O)c1cnc(N)c(NC(=O)c2cc(F)cc(C(F)(F)F)c2)c1` [I-204], the IC50 is 10 to 100 µM.

Regarding `CNC(=O)c1cnc(Nc2ccccc2C)c(NC(=O)Cc2c(C)nc(N)[nH]c2=O)c1` [I-26], the IC50 lay within 10 to 100 µM.

`CNC(=O)c1cnc(Nc2ccccc2C)c(NC(=O)c2n[nH]c3c(F)cccc23)c1` [I-383] returned an IC50 of 10 to 100 µM.

With `CNC(=O)c1cnc(Nc2ccccc2C)c(NC(=O)c2cncc(C(F)(F)F)c2)c1` [I-388], the IC50 lay in the range of 10 to 100 µM.

Compound `Cc1ccccc1Nc1ncc(-c2cnn(C3CCN(C(=O)OC(C)(C)C)CC3)c2)cc1NC(=O)c1cc(F)cc(C(F)(F)F)c1` [I-90] gave an IC50 of 1 to 10 µM.

For `CNC(=O)c1cnc(Nc2ccccc2C)c(NC(=O)c2c[nH]c3ccccc23)c1` [I-87], the IC50 lay within 10 to 100 µM.

Compound `CNC(=O)c1cnc(Nc2ccccc2C)c(NC(=O)C2(c3ccccn3)CC2)c1` [I-333] showed an IC50 of 10 to 100 µM.

In turn, `CNC(=O)c1cnc(N2CCC(C)c3ccccc32)c(NC(=O)c2cc(F)cc(C(F)(F)F)c2)c1` (stereo not shown) [I-282] came in with an IC50 of 1 to 10 µM.

For the compound `CNC(=O)c1cnc(Nc2ccccc2C)c(NC(=O)c2c(C)sc3ccccc23)c1` [I-328], the IC50 lay within 10 to 100 µM.

`CNC(=O)c1cnc(Nc2ccccc2C)c(NC(=O)Cc2ccccc2Cl)c1` [I-140] yielded an IC50 of 10 to 100 µM.

`COc1cccc(C(=O)Nc2cc(-c3cnn(C)c3)cnc2Nc2ccccc2C)c1` [I-124] displayed an IC50 of 10 to 100 µM.

As for `O=C1C[C@H](CCO)[C@@H](CNC(=O)c2cc(F)cc(C(F)(F)F)c2)[C@H](c2cc(F)ccc2Cl)N1` (racemic) [I-821], the IC50 was in the range of 10 to 100 µM.

For `Cc1ccccc1Nc1ncc(-c2c(C)noc2C)cc1NC(=O)c1cc(F)cc(C(F)(F)F)c1` [I-78], the IC50 fell in the range of 0.5 to 1 µM.

With `CNC(=O)c1cnc(-n2c(=O)ccc3ccccc32)c(NC(=O)c2cc(F)cc(C(F)(F)F)c2)c1` [I-822], the IC50 fell in the range of 10 to 100 µM.

In turn, `Cc1ccccc1Nc1ncc(-c2cnn(C)c2)cc1NC(=O)c1cc2ccccc2s1` [I-131] yielded an IC50 of 10 to 100 µM.

In turn, `CNC(=O)c1cnc(Nc2ccccc2C)c(NC(=O)c2cccc3ccncc23)c1` [I-238] registered an IC50 of 10 to 100 µM.

For `CNC(=O)c1cnc(NCc2cncn2C)c(NC(=O)c2cc(F)cc(C(F)(F)F)c2)c1` [I-323], the IC50 was 10 to 100 µM.

The test is the same for the next values; noted with them: ADP-Glo biochemical PIK3CA kinase assay.
`Cc1ccccc1Nc1ncc(C(=O)N2CC(C)(F)C2)cc1NC(=O)c1csc2ccccc12` [I-536] registered an IC50 of 1 to 10 µM.

With `CNC(=O)c1cnc(Nc2ccccc2C)c(NC(=O)c2csc3c2CCC(C)(C)C3)c1` [I-403], the IC50 lay within 10 to 100 µM.

`Cc1ccccc1Nc1ncc(-c2ccn[nH]2)cc1NC(=O)c1cc(F)cc(C(F)(F)F)c1` [I-767]: the IC50 lay in the range of 1 to 10 µM.

The compound `CNC(=O)c1cnc(Nc2ccccc2C)c(NC(=O)c2cn[nH]c2-c2ccc(F)cc2)c1` [I-473] registered an IC50 of 10 to 100 µM.

Consider `Nc1cnc(Nc2cc(F)ccc2Cl)c(NC(=O)c2nsc3ccccc23)c1` [I-784], for which the IC50 lay in the range of 10 to 100 µM.

Turning to `CNC(=O)c1cnc(Nc2ncccc2C2CC2)c(NC(=O)c2csc3ccccc23)c1` [I-742], the IC50 was in the range of 1 to 10 µM.

As to `CNC(=O)c1cnc(Nc2ccccc2C)c(NC(=O)c2nn(C(C)C)c3ccccc23)c1` [I-457], the IC50 lay in the range of 10 to 100 µM.

Consider `COC(=O)CCS(=O)(=O)c1cnc(Nc2ccccc2C)c(NC(=O)c2cc(F)cc(C(F)(F)F)c2)c1` [I-728], for which the IC50 was in the range of 1 to 10 µM.

`CNC(=O)c1cnc(Nc2ccccc2C)c(NC(=O)c2coc3cccc(Br)c23)c1` [I-483] gave an IC50 of 10 to 100 µM.

Turning to `CNC(=O)c1cnc(Nc2ccccc2C)c(NC(=O)c2ccc3c(ccn3C)c2)c1` [I-523], the IC50 was 10 to 100 µM.

`CNC(=O)c1cnc(Nc2cncc3ccccc23)c(NC(=O)c2csc3ccccc23)c1` [I-741] had an IC50 of 1 to 10 µM.

As for `CC1COCCN1c1ncc(C(=O)N[C@H]2C[C@@H](C(N)=O)C2)cc1NC(=O)c1csc2ccccc12` (stereo partly shown) [I-770], the IC50 fell in the range of 1 to 10 µM.

As to `Cc1ccccc1Nc1ncc(C(=O)NCc2ncccn2)cc1NC(=O)c1csc2ccccc12` [I-586], the IC50 lay within 0.5 to 1 µM.

The compound `CNC(=O)c1cnc(Nc2ccccc2C)c(NC(=O)c2ccc(C#N)c(C(F)(F)F)c2)c1` [I-710] registered an IC50 of 0.5 to 1 µM.

In turn, `COC(=O)c1cnc(N)c(NC(=O)c2csc3ccccc23)c1` [I-674] displayed an IC50 of 1 to 10 µM.

Take `CNC(=O)c1cnc(Nc2ccccc2C)c(NC(=O)c2cccc(COC)c2)c1` [I-577]: the IC50 lay within 1 to 10 µM.

As to `CCc1c(Cl)c(C(=O)Nc2cc(C(=O)NC)cnc2Nc2ccccc2C)nn1C` [I-465], the IC50 is 10 to 100 µM.

In turn, `CNC(=O)c1cnc(Nc2ccccc2C)c(NC(=O)Cc2cc(Cl)cc(C(F)(F)F)c2)c1` [I-587] gave an IC50 of 1 to 10 µM.

`CNC(=O)c1cnc(Nc2ccccc2C)c(NC(=O)c2ccc(C(F)F)cn2)c1` [I-484]: the IC50 lay in the range of 10 to 100 µM.

In turn, `CNC(=O)c1cnc(Nc2ccccc2C)c(NC(=O)C2(c3cccc(Cl)c3)CC2)c1` [I-513] showed an IC50 of 10 to 100 µM.

For `CNC(=O)c1cnc(Nc2ccccc2C)c(NC(=O)c2cccc(F)c2Cl)c1` [I-566], the IC50 was 1 to 10 µM.

Regarding `Cc1ccccc1Nc1cc(=O)n(CCc2ccncn2)cc1NC(=O)c1csc2ccccc12` [I-769], the half-inhibitory concentration (IC50) fell in the range of 1 to 10 µM.

`Cc1ccccc1Nc1ncc(C(=O)N2CC(C)(C#N)C2)cc1NC(=O)c1csc2ccccc12` [I-543] showed an IC50 of 1 to 10 µM.

Consider `CNC(=O)c1cnc(Nc2ccccc2C)c(NC(=O)c2cc(Cl)cc3cccnc23)c1` [I-470], for which the IC50 was in the range of 10 to 100 µM.
